Measured values from patent publication US20010006646A1, “METHOD AND SYSTEM FOR TREATMENT OF WOUNDS” (priority 1996, published 2001).

Experiments:
[1] = tested on: 18 month old chronic bed sore on the middle of their back; test: Example 2: old chronic back wound (bed sore), treatment of a human patient; assay type: in vivo; settings: dressings in conjunction with two serial courses of antibiotics (per orum Cipro 500 mg B.I.D., then 500 mg intravenous Keflex every eight hours)
Procedure: The chemical debriding complex applied to each of the wounds treated in examples 2 through 4 was an aerosolized liquid composition comprising:
(§1) The formulation of the present invention used in the following examples was prepared in the form of a gel as follows:
(§2) (4) 1 ml of mixture (a), 1 ml of mixture (b) and 1 ml of mixture (c) were combined using a three step homogenization process to form the gel formulation of the present invention used in the following examples, namely
(§3) The dose of formulation used in treating the wounds in the following examples was based on the wound volume. The wound volume was measured in cubic centimeters using well known methods.
(§4) The wound was subsequently treated using the gel formulation prepared as described above. Specifically, the given formulation was administered to the patient's wound as part of the following treatment procedure. Particularly, (i) the wound was prepared for administration of the given formulation by liberal application of a chemical debriding complex described above; (ii) after allowing the chemical debriding complex to bubble off, about three (3) minutes, a medicated pad comprising a sterile pad containing about three (3) ml of the gel formulation for each cubic centimeter of wound volume was placed over the wound and secured to the patient; (iii) the medicated pad was removed about twenty-four (24) hours later; (iv) steps (i) through (iii) were repeated. After seven (7) days of treatment, the wound was completely closed.
A human patient in very poor health suffering from CHF, diabetes, peripheral vascular disease, 10% body surface non-candidyal yeast infection, nutritional deficit, and “steroid” skin secondary to prednisone administration for auto-immune arthritis and from an 18 month old chronic bed sore on the middle of their back. Conventional treatments, including granulex, zinc oxide, duoderm and sorbasan dressings in conjunction with two serial courses of oral antibiotics, per orum Cipro 500 mg B.I.D. followed by 500 mg intravenous Keflex every eight hours, were unsuccessful at stimulating the healing of the wound. […]

[2] = tested on: 16 month old chronic interstitial, encapsulated, alpha-hemolytic, streptococcal channelling ulceration located on their right ankle; test: Example 1: old chronic ankle wound, treatment of a human patient; assay type: in vivo; settings: for outcome of conventional per orum treatments / outcome of conventional intravenous treatments: two week cycle each, not given in the same period
Procedure: The concepts of the invention will now be illustrated by the following Examples, which are intended to be purely exemplary and not limiting. The chemical debriding complex applied to the wound treated in example 1 was an aerosolized liquid composition comprising:
as §1, §2, §3
A human patient in normal health, suffered from a 16 month old chronic interstitial, encapsulated, alpha-hemolytic, streptococcal channelling ulceration located on their right ankle and tunnelled to the periosteum of the bone in their right ankle. […] Conventional intravenous treatments, including a two week cycle of penicillin and a two week cycle of amoxicillin, were unsuccessful. Note that the penicillin and the amoxicillin were not administered during the same two week period. Conventional per orum treatments, including a two week cycle of Keflex® and a two week cycle of Cipro®, were unsuccessful. Note that the Keflex and Cipro were not administered during the same two week period, nor were they administered during the same two week period as either of the penicillin or the amoxicillin.
as §4

[3] = tested on: six (6) month old chronic pressure-friction wound on both haunches; test: Example 3: canine pressure wound; assay type: in vivo, Borzoi; settings: duoderm post shaving; before treatment with the formulation

| Compound | outcome of conventional treatments at stimulating the healing of the wound [1] | outcome of conventional per orum treatments [2] | outcome of conventional intravenous treatments [2] | outcome of conventional treatments [3] | outcome of conventional topical treatments ([2]; topical, before treatment with the gel formulation) |
| --- | --- | --- | --- | --- | --- |
| O=C(O)c1cn(C2CC2)c2cc(N3CCNCC3)c(F)cc2c1=O [Cipro] | unsuccessful | unsuccessful | – | – | – |
| CC1(C)S[C@@H]2[C@H](NC(=O)[C@H](N)c3ccc(O)cc3)C(=O)N2[C@H]1C(=O)O [amoxicillin] | – | – | unsuccessful | – | – |
| [O]=[Zn] [zinc oxide] | unsuccessful | – | – | repeatedly unsuccessful | repeatedly unsuccessful |
| penicillin | – | – | unsuccessful | – | – |
| CC1=C(C(=O)O)N2C(=O)[C@@H](NC(=O)[C@H](N)c3ccccc3)[C@H]2SC1 [Keflex] | unsuccessful | unsuccessful | – | – | – |
